Test results as given in PubChem BioAssay AID248 (DTP/NCI, 2004).
Several values for one entry are separate records, joined by “and”; a condition that tells them apart may be missing. Equal values may be shown once. Inconclusive results and toxic doses are left out. Rule as the data show it: active = T/C of 150% or more; inactive = T/C below 125%. Square brackets hold non-standard residues; d marks the D form. Peptide text beside a SMILES is read from it. * marks the point of attachment. ξ: configuration not given here. Boc = CC(C)(C)OC(=O)*; ξP = O=C(O)C1CCCN1

Tested on: L1210 leukemia ip in BDF1 mice, survival T/C
Test: NCI In Vivo Anticancer Drug Screen. Data for tumor model L1210 Leukemia (intraperitoneal) in B6D2F1 (BDF1) mice
Conditions: endpoint: mean survival time, higher = longer survival
In short: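 Tumor was transplanted into mice, which were then dosed with test compound or vehicle alone. Survival was recorded for each group, and the treated figure was expressed relative to the control figure.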

[1] = dose: 200.0 mg/kg/injection, schedule: Q04DX003 (ip), vehicle: acetone
[2] = dose: 400.0 mg/kg/injection, schedule: Q04DX003 (ip), vehicle: acetone
[3] = dose: 100.0 mg/kg/injection, schedule: Q04DX003 (ip), vehicle: saline with Tween-80
[4] = dose: 200.0 mg/kg/injection, schedule: Q04DX003 (ip), vehicle: saline with Tween-80
[5] = dose: 400.0 mg/kg/injection, schedule: Q04DX003 (ip), vehicle: saline with Tween-80
[6] = dose: 100.0 mg/kg/injection, schedule: Q01DX001 (ip), vehicle: carboxymethylcellulose (CMC)
[7] = dose: 200.0 mg/kg/injection, schedule: Q01DX001 (ip), vehicle: carboxymethylcellulose (CMC)
[8] = dose: 400.0 mg/kg/injection, schedule: Q01DX001 (ip), vehicle: carboxymethylcellulose (CMC)
[9] = dose: 100.0 mg/kg/injection, schedule: Q04DX003 (ip), vehicle: saline
[10] = dose: 200.0 mg/kg/injection, schedule: Q04DX003 (ip), vehicle: saline
[11] = dose: 100.0 mg/kg/injection, schedule: Q01DX001 (ip), vehicle: saline
[12] = dose: 200.0 mg/kg/injection, schedule: Q01DX001 (ip), vehicle: saline
[13] = dose: 400.0 mg/kg/injection, schedule: Q01DX001 (ip), vehicle: saline
[14] = dose: 400.0 mg/kg/injection, schedule: Q04DX003 (ip), vehicle: saline
[15] = dose: 100.0 mg/kg/injection, schedule: Q01DX009 (ip), vehicle: saline with Tween-80
[16] = dose: 100.0 mg/kg/injection, schedule: Q04DX002 (ip), vehicle: saline with Tween-80
[17] = dose: 200.0 mg/kg/injection, schedule: Q01DX009 (ip), vehicle: saline with Tween-80
[18] = dose: 200.0 mg/kg/injection, schedule: Q04DX002 (ip), vehicle: saline with Tween-80
[19] = dose: 400.0 mg/kg/injection, schedule: Q01DX009 (ip), vehicle: saline with Tween-80
[20] = dose: 400.0 mg/kg/injection, schedule: Q04DX002 (ip), vehicle: saline with Tween-80

Measured: T/C

CCc1nc2c(c(=O)[nH]1)C(c1ccc(Cl)cc1)C(C)(C)O2 (configuration not stated)
inactive: [1] 94 % of control | [2] 105 % of control

O=S(=O)(c1ccc(NC(=S)NC(Cc2ccccc2)c2ccccc2)cc1)N1CCCCC1 (configuration not stated)
inactive: dose: 100.0 mg/kg/injection, schedule: Q04DX003 (ip), vehicle: carboxymethylcellulose (CMC) 91 % of control | dose: 200.0 mg/kg/injection, schedule: Q04DX003 (ip), vehicle: carboxymethylcellulose (CMC) 89 % of control | dose: 400.0 mg/kg/injection, schedule: Q04DX003 (ip), vehicle: carboxymethylcellulose (CMC) 93 % of control

Nc1ccc2[nH]ncc2c1
inactive: [3] 102 % of control | [4] 102 % of control | [5] 110 % of control

O=c1c(N(CCO)CCO)cn(C(c2ccccc2)(c2ccccc2)c2ccccc2)c(=O)n1C(c1ccccc1)(c1ccccc1)c1ccccc1
inactive: dose: 50.0 mg/kg/injection, schedule: Q01DX001 (ip), vehicle: carboxymethylcellulose (CMC) 104 % of control | [6] 96 % of control | [7] 100 % of control | [8] 96 % of control

CNC(=O)c1ccc[n+](CC(=O)Nc2ccccc2)c1
inactive: [9] 92 % of control | [10] 102 % of control

CCN(CC)C(=S)SS(C)(=O)=O
inactive: [11] 101 % of control | dose: 100.0 mg/kg/injection, schedule: Q04DX003 (ip), vehicle: acetone 97 % of control | [12] 97 % of control | [1] 103 % of control | [13] 97 % of control | [2] 101 % of control

COc1cc(C=C2c3ccccc3-c3ccccc32)ccc1O
inactive: [11] 91 % of control | [9] 99 % of control | [12] 91 % of control | [10] 91 % of control | [13] 91 % of control | [14] 91 % of control

CC(=O)NCCCC1CCCCC1CN (configuration not stated)
inactive: [9] 104 % of control | [10] 114 % of control | [14] 114 % of control

CC[N+](C)(CC)CCOC(=O)c1ccccc1Oc1ccc(C)cc1
inactive: [9] 96 % of control

COC(=O)C1CCCN1C(=O)CNC(=O)OC(C)(C)C (stereo not drawn) (Boc-Gly-[ξP]-OMe)
inactive: [11] 103 % of control | [12] 97 % of control | [13] 94 % of control

CCOC(=O)c1cc([N+](=O)[O-])c(C)s1
inactive: dose: 100.0 mg/kg/injection, schedule: Q01DX009 (sc), vehicle: olive oil, sesame oil, peanut oil 104 % of control | dose: 100.0 mg/kg/injection, schedule: Q04DX003 (sc), vehicle: olive oil, sesame oil, peanut oil 101 % of control | dose: 200.0 mg/kg/injection, schedule: Q01DX009 (sc), vehicle: olive oil, sesame oil, peanut oil 95 % of control | dose: 200.0 mg/kg/injection, schedule: Q04DX003 (sc), vehicle: olive oil, sesame oil, peanut oil 107 % of control | dose: 400.0 mg/kg/injection, schedule: Q01DX009 (sc), vehicle: olive oil, sesame oil, peanut oil 90 % of control | dose: 400.0 mg/kg/injection, schedule: Q04DX003 (sc), vehicle: olive oil, sesame oil, peanut oil 106 % of control

c1ccc(-c2nc3ccccc3s2)nc1
inactive: dose: 100.0 mg/kg/injection, schedule: Q04DX003 (ip), vehicle: Klucel (hydroxypropylcellulose) (HPC) 109 % of control | dose: 200.0 mg/kg/injection, schedule: Q04DX003 (ip), vehicle: Klucel (hydroxypropylcellulose) (HPC) 98 % of control | dose: 400.0 mg/kg/injection, schedule: Q04DX003 (ip), vehicle: Klucel (hydroxypropylcellulose) (HPC) 88 % of control

NNC(=O)C1C2C=CC(C2)C1C(=O)NN (configuration not stated)
inactive: [3] 103 % of control | [4] 91 % of control | [5] 100 % of control

CCCCCCCCCC(=O)Nc1ccc(CC)cc1
inactive: dose: 100.0 mg/kg/injection, schedule: Q04DX002 (ip), vehicle: Klucel (hydroxypropylcellulose) (HPC) 94 % of control | dose: 200.0 mg/kg/injection, schedule: Q04DX002 (ip), vehicle: Klucel (hydroxypropylcellulose) (HPC) 101 % of control | dose: 400.0 mg/kg/injection, schedule: Q04DX002 (ip), vehicle: Klucel (hydroxypropylcellulose) (HPC) 111 % of control

CCCCNC(=O)Oc1c(Cl)cc(Cl)c(Cl)c1[N+](=O)[O-]
inactive: dose: 12.5 mg/kg/injection, schedule: Q01DX009 (ip), vehicle: Klucel (hydroxypropylcellulose) (HPC) 96 % of control | dose: 25.0 mg/kg/injection, schedule: Q01DX009 (ip), vehicle: Klucel (hydroxypropylcellulose) (HPC) 112 % of control | dose: 50.0 mg/kg/injection, schedule: Q01DX009 (ip), vehicle: Klucel (hydroxypropylcellulose) (HPC) 101 % of control

O=C1C(c2c[nH]c3ccc(Br)cc23)=Nc2ccc([N+](=O)[O-])cc21
inactive: [12] 96 % of control | [13] 93 % of control

CCOC(=O)c1ccc(NC(=O)Oc2ccc3ccccc3c2)cc1
inactive: dose: 100.0 mg/kg/injection, schedule: Q01DX001 (ip), vehicle: saline with Tween-80 96 % of control | [15] 100 % of control and 90 % of control | [16] 99 % of control and 88 % of control | dose: 200.0 mg/kg/injection, schedule: Q01DX001 (ip), vehicle: saline with Tween-80 93 % of control and 86 % of control | [17] 92 % of control and 100 % of control | [18] 97 % of control and 91 % of control | dose: 400.0 mg/kg/injection, schedule: Q01DX001 (ip), vehicle: saline with Tween-80 93 % of control and 91 % of control | [19] 100 % of control and 90 % of control | [20] 92 % of control and 88 % of control

CC(C)C1=CCC2C(=C1)CCC1C(C)(C(N)=O)CCCC21C (configuration not stated)
inactive: [15] 102 % of control | [17] 92 % of control | [19] 89 % of control

CC(CNC1CCCCC1)OC(=O)c1ccc([N+](=O)[O-])cc1 (configuration not stated)
inactive: dose: 75.0 mg/kg/injection, schedule: Q01DX001 (ip), vehicle: acetone 103 % of control | dose: 150.0 mg/kg/injection, schedule: Q01DX001 (ip), vehicle: acetone 93 % of control | dose: 300.0 mg/kg/injection, schedule: Q01DX001 (ip), vehicle: acetone 97 % of control

CCOC(=O)c1c(-c2ccccc2)csc1NC(=O)c1ccccc1
inactive: dose: 50.0 mg/kg/injection, schedule: Q04DX003 (ip), vehicle: saline with Tween-80 92 % of control | [3] 90 % of control | [4] 89 % of control | [5] 90 % of control

OCC1OC(Sc2ncc3cnccn23)C(O)C(O)C1O (configuration not stated)
inactive: dose: 100.0 mg/kg/injection, schedule: Q01DX005 (ip), vehicle: saline 100 % of control | dose: 200.0 mg/kg/injection, schedule: Q01DX005 (ip), vehicle: saline 100 % of control

CCOC(=O)c1c(/N=C/c2cc(Br)cc(Br)c2O)sc2c1CCCC2
inactive: [16] 91 % of control | [18] 102 % of control | [20] 105 % of control

OCCSC1=NCCN1
inactive: [6] 97 % of control | [9] 109 % of control | [7] 100 % of control | [10] 103 % of control | [8] 94 % of control

O=c1ccc2c(Cl)cc(CN(CCO)CCO)cc2[nH]1
inactive: dose: 75.0 mg/kg/injection, schedule: Q01DX001 (ip), vehicle: saline 102 % of control | dose: 75.0 mg/kg/injection, schedule: Q04DX003 (ip), vehicle: saline 97 % of control | dose: 150.0 mg/kg/injection, schedule: Q01DX001 (ip), vehicle: saline 102 % of control | dose: 150.0 mg/kg/injection, schedule: Q04DX003 (ip), vehicle: saline 92 % of control | dose: 300.0 mg/kg/injection, schedule: Q01DX001 (ip), vehicle: saline 108 % of control
